A word on the half-life: it is the time in which the quantity being followed falls by half. A higher half-life goes with slow decline. What is called IC50 is the concentration at which inhibition is half-maximal.

Eleven compounds from patent US20180002366A1, “4'-SUBSTITUTED NUCLEOSIDE REVERSE TRANSCRIPTASE INHIBITORS” (MERCK SHARP & DOHME CORP., priority 2014, published 2018) can be followed below.

The target of data set [1] is T1, adenosine deaminase (ADA) type 1 (Homo sapiens, UniProt P00813).
T1 sequence (P00813 1-363): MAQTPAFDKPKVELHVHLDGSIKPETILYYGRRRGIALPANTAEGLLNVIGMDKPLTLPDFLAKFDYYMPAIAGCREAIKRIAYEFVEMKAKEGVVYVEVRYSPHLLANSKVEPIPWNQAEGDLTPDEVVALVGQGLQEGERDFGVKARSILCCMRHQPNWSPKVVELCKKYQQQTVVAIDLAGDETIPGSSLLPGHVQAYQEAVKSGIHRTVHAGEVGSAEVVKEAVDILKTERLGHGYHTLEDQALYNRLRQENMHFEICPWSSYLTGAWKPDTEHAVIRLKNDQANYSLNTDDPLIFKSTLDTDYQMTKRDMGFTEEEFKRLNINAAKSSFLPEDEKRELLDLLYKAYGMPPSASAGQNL
Description: Adenosine Deaminase (ADA) Half-Life. The format is in vitro ADME. The note with it: human, human adenosine deaminase (ADA) type 1 in Tris-HCl buffer; time for 50% conversion to inosine product; Tris-HCl buffer pH 7.5, 40° C., LCMS. The method, then: (§1) The data in Table 5 was generated by reacting a substrate compound with human ADA type 1 in the presence of Tris-HCl buffer (pH 7.5) at 40° C. and monitoring by LCMS for consumption of starting material. The time necessary for 50% conversion to the corresponding inosine product is noted as the T1/2 in Table 5. It is known that deamination by adenosine deaminase decreases the therapeutic potential of adenosine-like nucleoside inhibitors especially in vivo (see references below). […] It is possible that compounds that are more resistant to ADA will have better pharmacokinetic properties.
(§2) Tris-HCl buffer (pH 7.5, 5 mL) was injected into a 25-mL round-bottom flask. The mixture was heated to reflux for 30 minutes. Then the mixture was cooled to 30° C. and (2R,3S,5R)-5-(4-amino-5-fluoro-7H-pyrrolo[2,3-d]pyrimidin-7-yl)-2-ethynyl-2-(hydroxymethyl)tetrahydrofuran-3-ol (Example compound 2, 7 mg, 0.024 mmol) was added, followed by the addition of adenosine deaminase (3 mg, ˜33 units). The resulting mixture was stirred at 40° C. and stirred for 4 days. The reaction mixture was concentrated under vacuum and the residue was purified by preparative-HPLC with the following conditions: Column: X-Bridge C18, 19*150 mm, 5 um; mobile phase, water with 10 mmol ammonium bicarbonate and acetonitrile (6% acetonitrile up to 30% in 5 min, hold 95% for 2 min, down to 40% in 2 min); Detector, uv 254&220 nm. The product-containing fractions were collected and lyophilized to give the title compound 2A as a solid. ^1H-NMR: (400 MHz, d6-DMSO, ppm): δ 11.58 (brs, 1H), 7.86 (s, 1H), 7.22 (d, J=1.6 Hz, 1H), 6.44 (t, J=5.8 Hz, 1H), 5.47 (d, J=4.8 Hz, 1H), 5.26-5.22 (m, 1H), 4.39-4.35 (m, 1H), 3.55-3.45 (m, 2H), 3.42 (s, 1H), 2.41-2.24 (m, 2H). ^19F-NMR: (376 MHz, d6-DMSO, ppm): δ −165.50 (s, 1F). LC-MS: (ES, m/z): 294.15 [M+H]^+.
(§3) Using the described procedures, conversion of compounds 4, 8 and 9 to 4A, 8A and 9A, respectively, was not detected (NA=substrate insensitive to adenosine deaminase).

The subject of data set [2] is HIV-1 (H9IIIB virus) replication in MT4-GFP cells. Description: Antiviral Persistence assay. The note with it: for Fold shift IC50 72 h/24 h: ratio of IC50 72 h to IC50 24 h. The method, then:
HIV-1 replication was monitored using MT4-gag-GFP clone D3 (hereafter designate MT4-GFP), which are MT-4 cells modified to harbor a GFP reporter gene, the expression of which is dependent on the HIV-1 expressed proteins tat and rev. Productive infection of an MT4-GFP cell with HIV-1 results in GFP expression approximately 24 h post-infection. MT4-GFP cells were maintained at 37° C./5% CO2/90% relative humidity in RPMI 1640 supplemented with 10% fetal bovine serum, 100 U/mL penicillin/streptomycin, and 400 μg/mL G418 to maintain the reporter gene. For 72 hour time point persistence assay (72 h plate) and 24 hour time point control assay (24 h plate), MT4-GFP cells were washed and re-suspended in RPMI 1640 containing 10% normal human serum at either 1.6×10^5 or 2.4×10^5 cells/mL (10% NHS). Compound plates were prepared by dispensing compounds dissolved in DMSO into wells of 384 well cell culture plates ([…]) using an ECHO acoustic dispenser. Each compound was tested in a 10 point serial 3-fold dilution (typical final concentrations: 4.2 μM-0.21 nM). Controls included no inhibitor (DMSO only) and a combination of three antiviral agents (efavirenz, indinavir, and an integrase strand transfer inhibitor at final concentrations of 4 μM each). Cells were added (50 μL/well) to compound plates and were incubated at 37° C./5% CO2/90% relative humidity for 24 hours. The cells were washed with 5×40 uL of RPMI 1640 supplemented with 10% NHS and 100 U/mL penicillin/streptomycin. 72 h plate was return back to 37° C. incubator for additional 48 hour incubation. 40 uL of the cells from each well of the 24 h plate or the 72 h plate (after 48 hour incubation post wash) were transferred to a poly-D-lysine coated plate. The cells were then infected with H9IIIB virus at an approximate multiplicity of infection of 0.1 in the same incubation conditions.
Infected cells were quantified at ˜24 h post-infection, by counting the number of green cells in each well using an Acumen eX3 scanner. IC50s for the compounds in Table 4 were determined by non-linear 4-parameter curve fitting.
The antiviral persistence assay is meant to assess for the persistence of antiviral activity upon removal of the nucleoside. […] The publication AIDS Research and Therapy, 2009, 6:5, highlights the value of antiviral persistence.

For data set [3] the test system is unchanged. Description: Viking Assay: antiviral potency in a multiple round HIV-1 infection assay. It is filed as cell-based. The note with it: inhibition of reproductive ratio R0 between ~48 h and ~72 h post-infection, read-out: Viking, IC50 (10% NHS). The method, then: Assessing Antiviral Potency in a Multiple Round HIV-1 Infection Assay.
Cells were then washed and re-suspended in either RPMI 1640 containing 10% or 50% normal human serum at 1.6×10^5 cells/mL (10% or 50% NHS conditions) or in 100% normal human serum at 2×10^5 cells/mL (100% NHS conditions).
The increase in the number of green cells over ˜24 h period gives the reproductive ratio, R0, which is typically 5-15 and has been shown experimentally to be in logarithmic phase (data not shown). Inhibition of R0 is calculated for each well, and IC50s determined by non-linear 4-parameter curve fitting.

The target in another data set is T2, human ADA type 1 (Homo sapiens, UniProt P00813).
T2 sequence (P00813 1-363): T1 sequence (P00813 1-363)
Description: Adenosine Deaminase (ADA) Half-Life. It is filed as in vitro ADME. The note with it: Tris-HCl buffer pH 7.5, 40° C., procedures as for compound 2 to 2A. The method, then:
as §1, §2, §3

For another data set, the system named is MT4-GFP cells. Briefly: CTG Assay: cytotoxicity in CellTiter-Glo Luminescent Cell Viability Assay. To be noted: 10% normal human serum, 48 h incubation, top concentration 8.4 μM. The format is cell-based. The method, then:
Assessing Cytotoxicity in CellTiter-Glo Luminescent Cell Viability Assay (CTG).
Cells were then washed and resuspended in RPMI 1640 containing 10% normal human serum at a density of 0.8×10^5 cells/mL. […] Controls included DMSO. […] CTG reagent (Promega, G7573) was added to the cell plates after 48 h incubation according to the manufacturer's description. Luminescence signals were recorded on EnVision plate reader (PerkinElmer). LD50s were determined by non-linear 4-parameter curve fitting. The resulting data is shown in Table 3 with the marketed HIV nucleoside reverse transcriptase inhibitor AZT (azidothymidine, zidovudine) included as a control.

[4] abbreviates: Human immunodeficiency virus 1, 24 h, read-out: IC50 24 h (nM).
[5] abbreviates: Human immunodeficiency virus 1, read-out: IC50 72 h (nM).
Setting [6] is: Human immunodeficiency virus 1, 10% normal human serum.

Regarding `Nc1ncnc2c1ncn2[C@H]1C[C@H](O)[C@@H](CO)O1` [Deoxy- adenosine, deoxyadenosine, reference compound], the half-life at 4.8 mM in data set [1] was under 0.167 h.
Compound `C#C[C@]1(CO)O[C@@H](n2cnc3c(N)ncnc32)C[C@@H]1O` [EDA, (2R,3S,5R)-5-(6-amino-9H-purin-9-yl)-2-ethynyl-2-(hydroxymethyl)tetrahydrofuran-3-ol, reference compound] had a half-life at 4.8 mM in data set [1] of under 1 h.
As to `C#C[C@]1(CO)O[C@@H](n2ccc3c(N)ncnc32)C[C@@H]1O` [Example 1, (2R,3S,5R)-5-(4-amino-7H-pyrrolo[2,3-d]pyrimidin-7-yl)-2-ethynyl-2-(hydroxymethyl)tetrahydrofuran-3-ol], the values for the IC50 in data set [2] (setting [4]), in data set [2] (setting [5]) and in data set [3] (setting [6]) were 0.8 nM, 36 nM and 1.3 nM, respectively. Moreover, the “Fold shift IC50 72 h/24 h” value in data set [2] is listed as 45. The half-life at 4.8 mM in data set [1] was 288 h.
For `C#C[C@]1(CO)O[C@@H](n2cc(F)c3c(N)ncnc32)C[C@@H]1O` [Example 2, (2R,3S,5R)-5-(4-amino-5-fluoro-7H-pyrrolo[2,3-d]pyrimidin-7-yl)-2-ethynyl-2-(hydroxymethyl)tetrahydrofuran-3-ol] the same measures were 6.6 nM, 193 nM, 1.6 nM, 29 and 16 h.
As for `C#C[C@]1(CO)O[C@@H](n2ccc3c(N)nc(Cl)nc32)C[C@@H]1O` [Example 4, (2R,3S,5R)-5-(4-amino-2-chloro-7H-pyrrolo[2,3-d]pyrimidin-7-yl)-2-ethynyl-2-(hydroxymethyl)tetrahydrofuran-3-ol], the values for the half-inhibitory concentration (IC50) in data set [2] (setting [4]), in data set [2] (setting [5]) and in data set [3] (setting [6]) were 9.6 nM, 360 nM and 4 nM, respectively. Moreover, in data set [2], the “Fold shift IC50 72 h/24 h” value is 37.5. The “conversion to the corresponding inosine product by adenosine deaminase” value at human ADA type 1 is on record as “not detected”.
For `C#C[C@]1(CO)O[C@@H](n2ccc3c(N)nc(N)nc32)C[C@@H]1O` [Example 8, (2R,3S,5R)-5-(2,4-diamino-7H-pyrrolo[2,3-d]pyrimidin-7-yl)-2-ethynyl-2-(hydroxymethyl)tetrahydrofuran-3-ol] the same measures were 840 nM, 29000 nM, 194 nM, 34.5 and “not detected”.
Take `C#C[C@]1(CO)O[C@@H](n2ccc3c(N)nc(F)nc32)C[C@@H]1O` [Example 9, (2R,3S,5R)-5-(4-amino-2-fluoro-7H-pyrrolo[2,3-d]pyrimidin-7-yl)-2-ethynyl-2-(hydroxymethyl)tetrahydrofuran-3-ol]: the IC50 in data set [2] (setting [4]) is 37 nM; in data set [2] (setting [5]) it was 270 nM; in data set [3] (setting [6]) it was 10.2 nM. Besides, the “Fold shift IC50 72 h/24 h” value in data set [2] turned out to be 7.3. In addition, the “conversion to the corresponding inosine product by adenosine deaminase” value on human ADA type 1 was “not detected”.
In the case of `C#C[C@]1(CO)O[C@@H](c2ccc3c(N)ncnn23)C[C@@H]1O` [Example 11, (2R,3S,5R)-5-(4-aminopyrrolo[2,1-f][1,2,4]triazin-7-yl)-2-ethynyl-2-(hydroxymethyl)tetrahydrofuran-3-ol], the 50% inhibitory concentration (IC50) in data set [2] (setting [4]) came out at 12.4 nM; in data set [2] (setting [5]) it was 1950 nM; in data set [3] (setting [6]) it was 17.2 nM. For the same compound, the “Fold shift IC50 72 h/24 h” value in data set [2] is reported as 157. The half-life at 4.8 mM in data set [1] was 3 h.
With `C#C[C@]1(CO)O[C@@H](c2cnc3c(N)ncnn23)C[C@@H]1O` [Example 22, (2R,3S,5R)-5-(4-aminoimidazo[2,1-f][1,2,4]triazin-7-yl)-2-ethynyl-2-(hydroxymethyl)tetrahydrofuran-3-ol], the half-inhibitory concentration (IC50) amounted to 38 nM in data set [2] (setting [4]), 350 nM in data set [2] (setting [5]) and 38 nM in data set [3] (setting [6]). Further, the “Fold shift IC50 72 h/24 h” value in data set [2] is listed as 9.2. In data set [1], this compound had a half-life at 4.8 mM of 0.167 h.
In the case of `C#C[C@]1(CO)O[C@@H](c2cnn3c(N)ncnc23)C[C@@H]1O` [Example 23, (2R,3S,5R)-5-(4-aminopyrazolo[1,5-a][1,3,5]triazin-8-yl)-2-ethynyl-2-(hydroxymethyl)tetrahydrofuran-3-ol], the 50% inhibitory concentration (IC50) in data set [2] (setting [4]) is 64 nM; in data set [2] (setting [5]), 700 nM; in data set [3] (setting [6]), 64 nM. The “Fold shift IC50 72 h/24 h” value in data set [2] was found to be 10.9. This compound gave a half-life at 4.8 mM in data set [1] of 0.167 h.
On to “(2R,3S,5R)-5-(4-aminopyrrolo[2,1-f][1,2,4]triazin-7-yl)-3-hydroxy-2-(hydroxymethyl)tetrahydrofuran-2-carbonitrile [Example 12]”, for which the half-inhibitory concentration (IC50) came out at 880 nM in data set [2] (read-out: IC50 24 h, 24 h plate: cells incubated with compound 24 hours, washed, then infected, 10% NHS); 25000 nM in data set [2] (read-out: IC50 72 h, 72 h plate: compound 24 hours, washed, additional 48 hour incubation, then infected, 10% NHS); 735 nM in data set [3] (10% normal human serum). The LD50 in the data set on MT4-GFP cells was over 8.4 µM.
